# Results published in patent publication US20140364316A1, “COMPOSITION FOR IMPROVING RESISTANCE TO ENVIRONMENTAL STRESS OF PLANT AND METHOD FOR IMPROVING RESISTANCE TO ENVIRONMENTAL STRESS OF PLANT” (The Shizuoka Chamber of Commerce and Industry, priority 2012, published 2014).
# Columns and labels:
# Arabidopsis thaliana = test: Evaluation of high temperature resistance 2 (35° C. for 1 hour and 45° C. for 2 hours); assay type: in vivo; conditions: 4th day after high temperature exposure
# Description: As a sanguinarine reagent available on the market, a sanguinarine chloride hydrate (S5890-25MG manufactured by Sigma-Aldrich Japan K.K.) was obtained, the sanguinarine chloride hydrate was dissolved in water such that the sanguinarine concentration is 0.2 ppm, 2 ppm, or 20 ppm, and thus a sample liquid for each test plot was respectively prepared. In addition, as a sample liquid for the control plot, a 0.5% DMSO solution was prepared. By using these sample liquids, the following tests were performed.
# Seeds of Arabidopsis thaliana were sowed and cultivated in a rockwool cube which had been saturated with a diluent of the HYPONEX (registered trademark) diluted by 1,000 times. The cultivation environment conditions were a cycle of [bright place for 16 hours+dark place for 8 hours], and a temperature of 22° C. On around the strain of Arabidopsis thaliana on the 14th day after the start of cultivation, a sample liquid composed of an aqueous sanguinarine solution that had been adjusted to various concentrations, and a 0.5% DMSO solution for the control plot were respectively applied dropwise using a dropper. The dropping amount was set to 100 μL per a plant body. Therefore, the sanguinarine amount applied per a plant body in each test plot was 0.02 μg in the test plot of 0.2 ppm, 0.2 μg in the test plot of 2 ppm, and 0.002 mg in the test plot of 20 ppm. After the dropping, under the initial cultivation environment conditions, the cultivation was continued for 2 days, then the room temperature was increased to 35° C., and exposure was performed for 1 hour in a bright place. Further, the room temperature was increased to 45° C., and high temperature exposure was performed for 2 hours in a dark place. […]
# The state of the grown true leaves of Arabidopsis thaliana on the 4th day after the high temperature exposure under the above conditions was visually evaluated on a four level scale (index, 3: plant death, 2: partial plant death, 1: partial whitening, and 0: normal), and by assigning the values to the following equation, the average degree of damage was calculated. […]
# rats = conditions: Non Patent Literature 1; cited from earlier work
structure (smiles),measurement,setting,value
C[n+]1cc2c3c(ccc2c2ccc4cc5c(cc4c21)OCO5)OCO3 [sanguinarine],average degree of damage with increasing dosage,"Arabidopsis thaliana; 0.2 ppm to 20 ppm, FIG. 4",average degree of damage of Arabidopsis thaliana is reduced
same,growth (appearance and average degree of damage) compared with control plot (0.5% DMSO solution),"Arabidopsis thaliana; sanguinarine 0.2 ppm, 2 ppm or 20 ppm, 100 μL per plant body, FIG. 3, FIG. 4",growth was relatively favorable
same,average degree of damage,Arabidopsis thaliana; sanguinarine 20 ppm (0.002 mg per plant body),less than 10%
same,physiological disorders after administration,rats,disorders of particular note were not observed
